# In article PMC8620390, “New Multi-Targeted Antiproliferative Agents: Design and Synthesis of IC261-Based Oxindoles as Potential Tubulin, CK1 and EGFR Inhibitors” (Pharmaceuticals, 2021):
# pIC50: −log10 of the molar value.
# Tests used:
# [1] = test system: MCF-7; test: Two-dose antiproliferative screening, SRB assay, MCF-7; assay type: cell-based; conditions: Homo sapiens, MCF7, 72 h, triplicates; for inhibition at 1 µM: read-out: Growth Inhibition (%) MCF-7 1 μM Average; for inhibition at 10 µM: read-out: Growth Inhibition (%) MCF-7 10 μM Average
# Experimental: (§1) MCF-7(breast adenocarcinoma), PC-3 (prostate cancer) and COLO-205 (colorectal cancer) were obtained from Nawah Scientific inc., (Mokatam, Cairo, Egypt). Cells were maintained in Dulbecco’s Modified Eagle’s media (DMEM media) supplemented with […] of streptomycin, 100 units/mL of penicillin and 10% of heat-inactivated fetal bovine serum in humidified, 5% (v/v) CO2 atmosphere at 37 °C.
# (§2) Cell viability was assessed by the sulforhodamine B (SRB) assay. Aliquots of cell suspension (5 × 10^3 cells, 100 μL) were transferred into 96 well plates and incubated in complete media for 24 h. Cells were treated with another aliquot media (100 μL) containing compounds 3a–f, 4a–f, 6a–f, 7a–f, 9a–b at concentrations of 1 and 10 μM). After 72 h of drug exposure, cells were fixed by replacing media with trichloroacetic acid (TCA, 10%, 150 μL) and incubated at 4 °C for 1 h. The TCA solution was removed, and the cells were washed five times with distilled water. Aliquots of SRB solution (0.4%w/v, 70 μL) were added and incubated in a dark place at room temperature for 10 min. Plates were washed three times with 1% acetic acid and allowed to air dry overnight. Then, a solution of TRIS base and TRIS HCl (TRIS buffer, 10 mM, 150 μL) was added to dissolve protein bound SRB stain. The absorbance was measured at 540 nm using BMGLABTECH®–FLUOstar omega micro-plate reader (Ortenberg, Germany).
# [2] = test system: COLO-205; test: IC50 against COLO-205, SRB assay; assay type: cell-based; conditions: Homo sapiens, 0.001–100 μM
# Experimental: as §2
# The same procedures used to screen two-dose anticancer activities were applied in determining IC50 values against COLO-205 using SRB assay. Cells were maintained at Roswell Park Memorial Institute media (RPMI media). The test was performed using 0.001–100 μM of compounds 4a (IC261), 4b, 4d, 4e, 6e and 6f. IC50 values were calculated using the equation for Boltzman sigmoidal concentration–response curve using the nonlinear regression fitting models by GraphPad, Prism version 5 (GraphPad Software Inc., La Jolla, CA, USA).
# [3] = test system: PC-3; test: Two-dose antiproliferative screening, SRB assay, PC-3; assay type: cell-based; conditions: triplicates; for inhibition at 1 µM / inhibition at 10 µM: Homo sapiens, PC-3, 72 h; for inhibition at 1 µM: read-out: Growth Inhibition (%) PC-3 1 μM Average; for inhibition at 10 µM: read-out: Growth Inhibition (%) PC-3 10 μM Average
# Experimental: as §1, §2
# [4] = test system: COLO-205; test: Two-dose antiproliferative screening, SRB assay, COLO-205; assay type: cell-based, human; conditions: triplicates; for inhibition at 1 µM / inhibition at 10 µM: Homo sapiens, COLO 205, 72 h; for inhibition at 1 µM: read-out: Growth Inhibition (%) COLO-205 1 μM Average; for inhibition at 10 µM: read-out: Growth Inhibition (%) COLO-205 10 μM Average
# Experimental: as §1, §2
# [5] = target: T1, EGFR (Homo sapiens, UniProt P00533); test: EGFR kinase assay kit (Kinase-Glo MAX); assay type: biochemical; conditions: EGFR-TK kinase kit; read-out: EGFR Inhibition IC50 (converted)
# T1 construct: enough purified recombinant EGFR enzyme, EGFR substrate, ATP, and kinase assay buffer; purchased Sigma Aldrich
# T1 sequence (P00533 25-1210): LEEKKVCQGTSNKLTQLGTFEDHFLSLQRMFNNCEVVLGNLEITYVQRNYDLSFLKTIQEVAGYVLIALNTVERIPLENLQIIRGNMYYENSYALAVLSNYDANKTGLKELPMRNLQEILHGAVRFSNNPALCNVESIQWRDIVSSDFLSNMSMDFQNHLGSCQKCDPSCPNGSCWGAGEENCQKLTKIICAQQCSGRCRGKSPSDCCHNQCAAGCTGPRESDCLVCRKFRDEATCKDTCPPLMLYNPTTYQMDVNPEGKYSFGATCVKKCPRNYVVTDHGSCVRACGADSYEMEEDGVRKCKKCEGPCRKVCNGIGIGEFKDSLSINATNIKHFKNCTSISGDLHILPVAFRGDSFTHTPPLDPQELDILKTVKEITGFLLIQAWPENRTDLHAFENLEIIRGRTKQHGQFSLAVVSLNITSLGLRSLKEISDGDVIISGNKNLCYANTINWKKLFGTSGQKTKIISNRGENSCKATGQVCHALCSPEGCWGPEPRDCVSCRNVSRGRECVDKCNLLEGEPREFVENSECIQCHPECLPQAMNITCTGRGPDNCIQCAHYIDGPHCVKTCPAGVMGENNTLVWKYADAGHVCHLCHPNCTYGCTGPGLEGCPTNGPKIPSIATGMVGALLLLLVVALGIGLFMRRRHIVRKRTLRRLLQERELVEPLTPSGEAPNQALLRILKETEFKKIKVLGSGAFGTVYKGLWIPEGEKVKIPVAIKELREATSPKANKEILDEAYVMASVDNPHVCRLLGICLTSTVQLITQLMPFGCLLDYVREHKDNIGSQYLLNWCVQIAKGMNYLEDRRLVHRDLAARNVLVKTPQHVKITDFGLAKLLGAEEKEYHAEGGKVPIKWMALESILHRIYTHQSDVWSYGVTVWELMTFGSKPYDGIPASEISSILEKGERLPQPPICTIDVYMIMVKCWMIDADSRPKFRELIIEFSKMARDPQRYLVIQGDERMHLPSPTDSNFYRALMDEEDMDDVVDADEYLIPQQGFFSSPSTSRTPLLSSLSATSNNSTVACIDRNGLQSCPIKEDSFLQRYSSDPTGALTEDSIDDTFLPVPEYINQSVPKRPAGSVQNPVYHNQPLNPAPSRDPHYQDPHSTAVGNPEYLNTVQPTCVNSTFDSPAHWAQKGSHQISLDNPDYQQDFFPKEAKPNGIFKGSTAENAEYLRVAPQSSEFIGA
# Experimental: The EGFR Kinase Assay Kit (Sigma Aldrich, St. Louis, […], USA) is designed to measure EGFR Kinase activity for screening and profiling applications using Kinase-Glo® MAX as a detection reagent. The EGFR Kinase Assay Kit (Sigma Aldrich, St. Louis, […], USA) comes in a convenient 96-well format, with enough purified recombinant EGFR enzyme, EGFR substrate, ATP, and kinase assay buffer for 100 enzyme reactions. The master mixture (25 μL per well) was prepared out of Kinase assay buffer (6 μL), ATP (500 μM, 1 μL), PTK substrate (50×, 1 μL) and water (17 μL) and added to each well. Inhibitor solution was made by dissolving 4b in a liquid labelled” inhibitor buffer”. An inhibitor solution (5 μL) was then added to each well, labelled as “Test Inhibitor”. For “Positive Control” and “Blank”, add 5 μL inhibitor buffer). EGFR was thawed on ice. Its tube was spun briefly to recover the full content of the tube. The enzyme was diluted with 1× Kinase assay buffer enzyme to 1 ng/μL. The reaction was initiated by adding 20 μL of diluted EGFR enzyme to the wells designated “Positive Control” and “Test Inhibitor Control”. The plate was incubated at 30 °C for 40 min. After the 40-min reaction, the Kinase-Glo Max (50 μL) reagent was added to each well. The plate was covered with aluminum foil, incubated at room temperature for 15 min and the luminescence was measured using the microplate reader.
# [6] = target: CK1; test: Casein Kinase 1 (CK1) 33P-ATP assay; assay type: biochemical
# Experimental: The active CK1, kinase assay buffer, substrate solution and kinase dilution buffer were thawed on ice (^33P-ATP assay Cocktail). In a precooled microcentrifuge tube, 10 μL of kinase solution, 5 μL of substrate solution and 5 μL of cold water (4 °C) were added, then a blank control was set up. Each reaction was initiated by adding 5 μL of ^33P-ATP assay cocktail then incubated for 15 min in a water bath (30 °C), then 20 μL of the reaction mixture were spotted onto an individually precut strip of phosphocellulose P81 paper and allowed to air dry followed by washing using 1% H2SO4 with constant gentle stirring. A radioactive control was set up then 5 μL of γ-^33P-ATP assay cocktail was spotted on P81 paper, the sample was allowed to air dry for 2 min then the radioactivity count was recorded.
# [7] = test system: CK1; conditions: cited from earlier work
melting point [°C],Structure (SMILES),inhibition at 1 µM [1] [%],inhibition at 10 µM [1] [%],pIC50 [2],inhibition at 1 µM ([3]; 1 μM) [%],inhibition at 10 µM [3] [%],"Growth Inhibition (%) COLO-205 10 μM Average ([4]; 10 μM, 72 h) [%]",inhibition at 1 µM [4] [%],inhibition at 10 µM ([4]; 10 μM) [%],IC50 [5] [µM],"Growth Inhibition (%) PC-3 1 μM Average ([3]; 1 μM, 72 h) [%]",Casein Kinase I Inhibition IC50 [6] [µg/mL],fold less potent on CK1 than compound 4b ([6]; ratio of CK1 IC50 vs 4b),inhibitory activity against CK1 [7] [µM]
212 to 215,"COc1cc(OC)c(/C=C2/C(=O)Nc3ccc(F)cc32)c(OC)c1 [Compound 4d, (E)-5-fluoro-3-(2,4,6-trimethoxybenzylidene)indolin-2-one]",10,66.1,6.00,23.8,58,64.01,9.69,64,–,–,–,–,–
82 to 85,"COc1cc(/C=C2/C(=O)N(CC(=O)OC(C)(C)C)c3cc(Cl)ccc32)cc(OC)c1OC [Compound 9a, t-Butyl (E)-2-(6-chloro-2-oxo-3-(3,4,5-trimethoxybenzylidene)indolin-1-yl)acetate]",2.11,7.11,–,1.19,5.56,–,3.05,13,–,–,–,–,–
60 to 62,"CCOC(=O)CN1C(=O)/C(=C/c2cc(OC)c(OC)c(OC)c2)c2ccc(Cl)cc21 [Compound 9b, Ethyl (E)-2-(6-chloro-2-oxo-3-(3,4,5-trimethoxybenzylidene)indolin-1-yl)acetate]",2.3,6.82,–,1.66,13.2,–,35.1,40.9,–,–,–,–,–
–,Nc1ccc2c(c1)/C(=C1/Nc3ccccc3/C1=N\O)C(=O)N2 [X],–,–,–,–,–,–,–,–,–,–,–,–,0.13

Structure (SMILES),melting point [°C],inhibition at 1 µM [1] [%],inhibition at 10 µM [1] [%],pIC50 [2],inhibition at 1 µM ([3]; 1 μM) [%],inhibition at 10 µM [3] [%],"Growth Inhibition (%) COLO-205 10 μM Average ([4]; 10 μM, 72 h) [%]",inhibition at 1 µM [4] [%],inhibition at 10 µM ([4]; 10 μM) [%],IC50 [5] [µM],"Growth Inhibition (%) PC-3 1 μM Average ([3]; 1 μM, 72 h) [%]",Casein Kinase I Inhibition IC50 [6] [µg/mL],fold less potent on CK1 than compound 4b ([6]; ratio of CK1 IC50 vs 4b),inhibitory activity against CK1 [7] [µM]
"COc1cc(OC)c(/C=C2/C(=O)Nc3ccc(OC)cc32)c(OC)c1 [Compound 4e, (E)-5-methoxy-3-(2,4,6-trimethoxybenzylidene)indolin-2-one]",221 to 223,34.5,68.9,6.52,43,63.3,–,8.05,31.9,1.17,42.36,13.08,about 6.8 fold,–
